Experimental data taken from patent publication US10363288B2, “Insulin mimotopes and methods of using the same” (THE REGENTS OF THE UNIVERSITY OF COLORADO, a body corporate, priority 2015, dated 2019).

Key:
CD4 T cells = assay: CFSE proliferation assay of CD4 T cells from PBMCs of established T1D subjects; type: cell-based, human
NOD mouse = details: administered at low doses; cited from earlier work

## SHLVEALYLVCGEEG [B: 9-23 B22E, B:9-23 mimotope; B22 arginine to glutamic acid]
CD4 T cells
  proliferation of CD4 T cells (CFSE dilution): proliferation of CD4 T cells much more than the wild type peptide
NOD mouse
  inducing tolerance and preventing diabetes onset: completely preventing diabetes onset
